Results taken from patent publication US9693556B2, “Herbicidal pyridazinone derivatives” (SYNGENTA LIMITED, priority 2011, dated 2017).

How the values were obtained:
Assay type in all cases: in vivo
[1] = system: Echinochloa crus-galli (ECHCG); experiment: Pre-emergence herbicidal glasshouse test on Echinochloa crus-galli; details: pre-emergence, 1000 g/h, evaluated after 13 days
Summary of the method: (§1)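 Read-out: percentage herbicidal damage 13 days after spraying, given on a five-point scale (5=80-100%, 4=60-79%, 3=40-59%, 2=20-39%, 1=0-19%). Pots of standard soil; application at 1000 g/h, one day post-sowing for pre-emergence, eight days for post-emergence.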

[2] = system: Amaranthus retoflexus (AMARE); experiment: Pre-emergence herbicidal glasshouse test on Amaranthus retoflexus; details: pre-emergence, 1000 g/h, evaluated after 13 days
Summary of the method: as §1

[3] = system: Solanum nigrum (SOLNI); experiment: Post-emergence herbicidal glasshouse test on Solanum nigrum; details: post-emergence, 1000 g/h, evaluated after 13 days
Summary of the method: as §1

[4] = system: Alopecurus myosuroides (ALOMY); experiment: Pre-emergence herbicidal glasshouse test on Alopecurus myosuroides; details: pre-emergence, 1000 g/h, evaluated after 13 days
Summary of the method: as §1

[5] = system: Alopecurus myosuroides (ALOMY); experiment: Post-emergence herbicidal glasshouse test on Alopecurus myosuroides; details: post-emergence, 1000 g/h, evaluated after 13 days
Summary of the method: as §1

[6] = system: Setaria faberi (SETFA); experiment: Post-emergence herbicidal glasshouse test on Setaria faberi; details: post-emergence, 1000 g/h, evaluated after 13 days
Summary of the method: as §1

[7] = system: Amaranthus retoflexus (AMARE); experiment: Post-emergence herbicidal glasshouse test on Amaranthus retoflexus; details: post-emergence, 1000 g/h, evaluated after 13 days
Summary of the method: as §1

[8] = system: Ipomoea hederacea (IPOHE); experiment: Post-emergence herbicidal glasshouse test on Ipomoea hederacea; details: post-emergence, 1000 g/h, evaluated after 13 days
Summary of the method: as §1

[9] = system: Setaria faberi (SETFA); experiment: Pre-emergence herbicidal glasshouse test on Setaria faberi; details: pre-emergence, 1000 g/h, evaluated after 13 days
Summary of the method: as §1

[10] = system: Echinochloa crus-galli (ECHCG); experiment: Post-emergence herbicidal glasshouse test on Echinochloa crus-galli; details: post-emergence, 1000 g/h, evaluated after 13 days
Summary of the method: as §1

[11] = system: Ipomoea hederacea (IPOHE); experiment: Pre-emergence herbicidal glasshouse test on Ipomoea hederacea; details: pre-emergence, 1000 g/h, evaluated after 13 days
Summary of the method: as §1

[12] = system: Solanum nigrum (SOLNI); experiment: Pre-emergence herbicidal glasshouse test on Solanum nigrum; details: pre-emergence, 1000 g/h, evaluated after 13 days
Summary of the method: as §1

Structure (SMILES)	PRE Application ECHCG herbicidal damage (five point scale) [1]	PRE Application AMARE herbicidal damage (five point scale) [2]	POST Application SOLNI herbicidal damage (five point scale) [3]	PRE Application ALOMY herbicidal damage (five point scale) [4]	POST Application ALOMY herbicidal damage (five point scale) [5]	POST Application SETFA herbicidal damage (five point scale) [6]	POST Application AMARE herbicidal damage (five point scale) [7]	POST Application IPOHE herbicidal damage (five point scale) [8]	PRE Application SETFA herbicidal damage (five point scale) [9]	POST Application ECHCG herbicidal damage (five point scale) [10]	PRE Application IPOHE herbicidal damage (five point scale) [11]	PRE Application SOLNI herbicidal damage (five point scale) [12]	also measured
Cc1ccc(-c2c(C(F)(F)F)ccn(-c3cnn(C)c(=O)c3O)c2=O)cc1 [Compound 7.006]	5 (5=80-100% damage)	5 (5=80-100% damage)	5 (5=80-100% damage)	3 (3=40-59% damage)	3 (3=40-59% damage)	3 (3=40-59% damage)	4 (4=60-79% damage)	3 (3=40-59% damage)	4 (4=60-79% damage)	5 (5=80-100% damage)	2 (2=20-39% damage)	5 (5=80-100% damage)	–
Cn1ncc(-c2cccc3ccccc23)c(O)c1=O [Compound 1.095]	1 (1=0-19% damage)	1 (1=0-19% damage)	1 (1=0-19% damage)	1 (1=0-19% damage)	1 (1=0-19% damage)	1 (1=0-19% damage)	1 (1=0-19% damage)	1 (1=0-19% damage)	1 (1=0-19% damage)	1 (1=0-19% damage)	1 (1=0-19% damage)	1 (1=0-19% damage)	–
Cn1ncc(-c2ccc(C(F)(F)F)cc2S(=O)(=O)Cc2ccccc2)c(O)c1=O [Compound 2.047]	5 (5=80-100% damage)	2 (2=20-39% damage)	5 (5=80-100% damage)	1 (1=0-19% damage)	3 (3=40-59% damage)	3 (3=40-59% damage)	5 (5=80-100% damage)	4 (4=60-79% damage)	1 (1=0-19% damage)	5 (5=80-100% damage)	1 (1=0-19% damage)	4 (4=60-79% damage)	–
C#Cc1ccc(-c2cnn(C)c(=O)c2O)c(S(C)(=O)=O)c1 [Compound 2.028]	5 (5=80-100% damage)	5 (5=80-100% damage)	5 (5=80-100% damage)	5 (5=80-100% damage)	5 (5=80-100% damage)	5 (5=80-100% damage)	5 (5=80-100% damage)	5 (5=80-100% damage)	4 (4=60-79% damage)	5 (5=80-100% damage)	4 (4=60-79% damage)	5 (5=80-100% damage)	–
Cn1ncc(-n2ccc(C(F)(F)F)c(-c3ccccc3Cl)c2=O)c(O)c1=O [Compound 1.159]	–	–	–	–	–	–	–	–	–	–	–	–	herbicidal damage, PRE Application ECHCG ([1]; five point scale): 5 (5=80-100% damage); herbicidal damage, PRE Application AMARE ([2]; five point scale): 5 (5=80-100% damage); herbicidal damage, POST Application SOLNI ([3]; five point scale): 5 (5=80-100% damage); herbicidal damage, PRE Application ALOMY ([4]; five point scale): 5 (5=80-100% damage); herbicidal damage, POST Application ALOMY ([5]; five point scale): 4 (4=60-79% damage); herbicidal damage, POST Application SETFA ([6]; five point scale): 5 (5=80-100% damage); herbicidal damage, POST Application AMARE ([7]; five point scale): 5 (5=80-100% damage); herbicidal damage, POST Application IPOHE ([8]; five point scale): 5 (5=80-100% damage); herbicidal damage, PRE Application SETFA ([9]; five point scale): 5 (5=80-100% damage); herbicidal damage, POST Application ECHCG ([10]; five point scale): 5 (5=80-100% damage); herbicidal damage, PRE Application IPOHE ([11]; five point scale): 1 (1=0-19% damage); herbicidal damage, PRE Application SOLNI ([12]; five point scale): 5 (5=80-100% damage)
Cn1ncc(-c2ccc(C#N)cc2C(F)(F)F)c(O)c1=O [Compound 1.071]	5 (5=80-100% damage)	5 (5=80-100% damage)	5 (5=80-100% damage)	4 (4=60-79% damage)	3 (3=40-59% damage)	4 (4=60-79% damage)	5 (5=80-100% damage)	5 (5=80-100% damage)	4 (4=60-79% damage)	5 (5=80-100% damage)	2 (2=20-39% damage)	5 (5=80-100% damage)	–
CCC(C)n1ncc(-c2ccc(S(C)(=O)=O)c(C3=NOCC3)c2C)c(O)c1=O (stereo not drawn) [Compound 1.003]	5 (5=80-100% damage)	5 (5=80-100% damage)	5 (5=80-100% damage)	1 (1=0-19% damage)	2 (2=20-39% damage)	5 (5=80-100% damage)	5 (5=80-100% damage)	5 (5=80-100% damage)	1 (1=0-19% damage)	5 (5=80-100% damage)	3 (3=40-59% damage)	4 (4=60-79% damage)	–
Cn1ncc(-n2ccc(C(F)(F)F)c(N3CCOCC3)c2=O)c(O)c1=O [Compound 1.026]	5 (5=80-100% damage)	5 (5=80-100% damage)	5 (5=80-100% damage)	5 (5=80-100% damage)	5 (5=80-100% damage)	5 (5=80-100% damage)	5 (5=80-100% damage)	5 (5=80-100% damage)	5 (5=80-100% damage)	5 (5=80-100% damage)	5 (5=80-100% damage)	5 (5=80-100% damage)	–
Cn1ncc(-c2ccc(Cl)cc2C(F)(F)F)c(O)c1=O [Compound 1.113]	1 (1=0-19% damage)	5 (5=80-100% damage)	5 (5=80-100% damage)	1 (1=0-19% damage)	2 (2=20-39% damage)	3 (3=40-59% damage)	5 (5=80-100% damage)	5 (5=80-100% damage)	1 (1=0-19% damage)	2 (2=20-39% damage)	2 (2=20-39% damage)	4 (4=60-79% damage)	–
